From patent publication US20230021669A1, “TRICYCLIC COMPOUND, AND PREPARATION METHOD THEREFOR AND MEDICAL USE THEREOF” (The National Institutes of Pharmaceutical R&D Co., Ltd., priority 2019, published 2023) come the findings set out here.

A short description of experiment [1]: Determination of aldehyde capture rate (nonenal as model aldehyde, HPLC quantification). The settings on record: for Capture rate (slope of the capture curve per unit time): higher absolute value of the slope = higher capture rate; for Aldehyde consumption (100%): nonenal 0.025 mM, compound 0.05 mM, room temperature. As to the method:
In the aldehyde capture test disclosed in the present invention, the stable lipid metabolite, nonenal, was used as the model aldehyde to react with the compound of the Example. The specific protocol was as follows.
0.05 mM of the compounds of the Examples of the present invention were precisely weighed respectively and dissolved in 1.2 mL of a mixed solution (v/v=1:1) of triolein (Aladdin, G105172-5g) and linoleic acid (Aladdin, L100442-25g), respectively. 2.5 mL of PBS (Solarbio) solution containing 20% Captisol® (Aladdin, C125030-25g) was added, and the solution was stirred at room temperature overnight. After the example compound was completely dissolved, 0.025 mM nonenal (Sigma, 255653-5G) was added, and the solution was stirred vigorously at room temperature. 200 μL of the sample was added to 800 μL of acetonitrile (Fisher, A995) at 0, 45, 90, 180, 225 and 465 minutes, respectively. The solution was mixed vigorously by vortex for 2 minutes, and centrifuged at a low speed of 1000 r/min for 3 minutes. The supernatant was transferred to an injection vial. The nonenal in the reaction mixture was analyzed quantitatively by high performance liquid chromatography. The adduct resulted from the example compound of the present invention and nonenal was analyzed qualitatively by high performance liquid chromatography-mass spectrometry.
In the developed detection method, the retention time of the model aldehyde nonenal was 2.42 minutes.

Experiment [2] concerns C48/80-induced allergic conjunctivitis (Wistar rats). Kind of experiment: Therapeutic effect in C48/80-induced allergic conjunctivitis animal model. It counts as in vivo, rat. The settings on record: female Wistar rats, C48/80 on cornea; 10 μL per eye 10 minutes after stimulation; examined 20 minutes after administration. The source says:
C48/80 is a polymer formed by the condensation of N-methyl-p-methoxyphenethylamine with formaldehyde, which acts directly on G protein and induces mast cell degranulation. After degranulation, the mast cell releases active substances such as histamine and kinin, which can cause acute type I allergic reactions such as telangiectasia and enhanced permeability. It can cause allergic conjunctivitis if applied topically to the ocular surface.
Female Wistar rats were used as the research subjects. Wistar rats (Vital River) were randomly divided into groups (5 animals per group, a total of 10 eyes). The groups are as follows: normal control group, model control group, positive drug group, and example administration group. The inflammation model was established in these groups except for the normal control group. Emedastine Difumarate Eye Drops (Emadine®, Alcon, H20181192) was used as the positive drug. Model establishment, administration and evaluation processes are as follows. […]
After 10 minutes of stimulation, different drug treatments were carried out according to the group settings. […] The clinical score was evaluated individually on the eyes of each animal according to the McDonald-Shadduck scoring system (GB/T 28538-2012).

Experiment [3] deals with noninfectious uveitis animal model (lewis rats). Kind of experiment: Therapeutic effect in lipopolysaccharide-induced noninfectious uveitis animal model. It counts as in vivo, rat. As to the method:
Female lewis rats were used as the research subjects. Lewis rats (Vital River) were randomly divided into groups (4 animals per group, a total of 8 eyes). The groups are as follows: normal control group, model control group, and example administration group. The inflammation model was established in these groups except for the normal control group.
(2) Formulation of drug solution: 10 mg of the compound of Example 4 of the present invention was weighed and dissolved in 1 mL of the vehicle stock solution, and the resulting solution was made up to 2 mL with water for injection. The content of each substance is as follows: Na2HPO4.12H2O 0.83%, NaH2PO4.2H2O 0.017%, ρ-cyclodextrin 9.5%, PEG-400 5.0%, active compound 0.5%.
The animal model was a noninfectious uveitis animal model established by intraperitoneal injection of lipopolysaccharide (derived from Escherichia coli, 055:B5, Sigma, L2880-100MG, injection dose: 2 mg/kg). At the same time of modeling, drug administration was carried out according to the above grouping situation. The normal control group was administered with normal saline, the model control group was administered with blank vehicle, and the example administration group was administered with the eye drops formulated above. The drug was administered by eye instillation to both eyes of each animal, and the eye instillation dose was 20 μL/eye. After the completion of eye instillation, the eyelids were closed for 20 seconds to prevent the loss of the drug. The administration was repeated at 3, 6 and 23 hours after modeling. […] The ocular inflammation of the animals in each group was examined with a slit lamp microscope (Jiangxi Jiangfeng, LYL-S), and evaluated according to the McDonald-Shadduck scoring system (GB/T 28538-2012).
The animals were sacrificed, and the bilateral eyeballs were enucleated. […] Quantitative analysis of total protein in aqueous humor was performed on the supernatant by a BCA protein quantification kit (Beyotime, P0010).

As to `CC(C)(O)c1nc2cc3c(cc2cc1N)OCO3` [Example 1, 2-(7-amino-[1,3]dioxolo[4,5-g]quinolin-6-yl)propan-2-ol], in experiment [1] (225 minutes), the “Capture rate (slope of the capture curve per unit time)” value is −0.05 and the “Aldehyde consumption (100%)” value was found to be 10.73%. Also, in experiment [1] (465 minutes), the “Capture rate (slope of the capture curve per unit time)” value is listed as −0.04 and the “Aldehyde consumption (100%)” value is reported as 18.43%.

Take `Cc1nc2cc3nc(C(C)(C)O)c(N)cc3cc2o1` [Example 2, 2-(7-amino-2-methyloxazolo[5,4-g]quinolin-6-yl)propan-2-ol]: in experiment [1] (225 minutes), the “Capture rate (slope of the capture curve per unit time)” value is listed as −0.06 and the “Aldehyde consumption (100%)” value came to 11.99%. Further, in experiment [1] (465 minutes), the “Capture rate (slope of the capture curve per unit time)” value is −0.03 and the “Aldehyde consumption (100%)” value was determined as 12.11%.

Turning to `CC(C)(O)c1nc2cc3nc(N4CCOCC4)oc3cc2cc1N` [Example 3, 2-(7-amino-2-morpholinooxazolo[5,4-g]quinolin-6-yl)propan-2-ol], the figures for the “Capture rate (slope of the capture curve per unit time)” value in experiment [1] (225 minutes) and in experiment [1] (465 minutes) were −0.17 and −0.10, respectively. Also, the figures for the “Aldehyde consumption (100%)” value in experiment [1] (225 minutes) and in experiment [1] (465 minutes) were 35.38% and 43.67%, respectively.

For the compound `CC(C)(O)c1cc2cc3c(cc2cc1N)OCO3` [Example 4, 2-(7-aminonaphtho[2,3-d][1,3]dioxol-6-yl)propan-2-ol], in experiment [2], the “Therapeutic effect on allergic conjunctivitis (McDonald-Shadduck clinical score, FIG. 2)” value is recorded as “good therapeutic effect”. The “Protein concentration in aqueous humor” value in experiment [3] (female lewis rats, LPS 2 mg/kg i.p., 0.5% eye drops 20 μL/eye at 0, 3, 6, 23 h, 24 hours after modeling, BCA, mean ± standard deviation) was 840.6 ± 449.7 µg/mL. Also, the “Ocular score (McDonald-Shadduck scoring system)” value in experiment [3] (female lewis rats, LPS 2 mg/kg i.p., 0.5% eye drops 20 μL/eye at 0, 3, 6, 23 h, 24 hours after modeling, mean ± standard deviation) is listed as 8.4 ± 2.8. Also, the “Therapeutic effect in the ocular inflammation animal model (score and aqueous humor protein, in words)” value in experiment [3] (lewis rats, LPS-induced uveitis, eye drops) is “showing a therapeutic effect”. The “Capture rate (slope of the capture curve per unit time)” value in experiment [1] (225 minutes) is −0.25; in experiment [1] (465 minutes), −0.14. Besides, the “Aldehyde consumption (100%)” value is 52.65% in experiment [1] (225 minutes) and 66.62% in experiment [1] (465 minutes).

Take `Cn1cnc2cc3cc(N)c(C(C)(C)O)nc3cc21` [Example 5, 2-(7-amino-3-methyl-3H-imidazo[4,5-g]quinolin-6-yl)propan-2-ol]: in experiment [1] (225 minutes), the “Capture rate (slope of the capture curve per unit time)” value is −0.08 and the “Aldehyde consumption (100%)” value was determined as 20.02%. For the same compound, in experiment [1] (465 minutes), the “Capture rate (slope of the capture curve per unit time)” value was −0.08 and the “Aldehyde consumption (100%)” value is recorded as 36.01%.

In the case of `CC(C)(O)c1cc2cc3c(cc2cc1N)OCCO3` [Example 6, 2-(8-amino-2,3-dihydronaphtho[2,3-b][1,4]dioxin-7-yl)propan-2-ol], in experiment [1] (225 minutes), the “Capture rate (slope of the capture curve per unit time)” value is given as −0.07 and the “Aldehyde consumption (100%)” value is on record as 16.48%. For the same compound, in experiment [1] (465 minutes), the “Capture rate (slope of the capture curve per unit time)” value is −0.05 and the “Aldehyde consumption (100%)” value came to 22.01%.

On to `CC(C)(O)c1nc2cc3oc(N4CCOCC4)nc3cc2cc1N` [Example 7, 2-(7-amino-2-morpholinooxazolo[4,5-g]quinolin-6-yl)propan-2-ol], for which the “Capture rate (slope of the capture curve per unit time)” value in experiment [1] (225 minutes) is −0.03; in experiment [1] (465 minutes), −0.01. Also, the “Aldehyde consumption (100%)” value was 7.12% in experiment [1] (225 minutes) and 8.34% in experiment [1] (465 minutes).

Take `CC(C)(O)c1cc2cc3c(cc2cc1N)OCCOCCOCCO3` [Example 8, 2-(14-amino-2,3,5,6,8,9-hexahydronaphtho[2,3-b][1,4,7,10]tetraoxacyclododecin-13-yl) propan-2-ol]: in experiment [1] (225 minutes), the “Capture rate (slope of the capture curve per unit time)” value is listed as −0.07 and the “Aldehyde consumption (100%)” value amounted to 19.78%. In addition, in experiment [1] (465 minutes), the “Capture rate (slope of the capture curve per unit time)” value was −0.04 and the “Aldehyde consumption (100%)” value worked out at 19.82%.

Regarding `Nc1cc2cc3c(cc2cc1C1(O)CC1)OCO3` [Example 9, 1-(7-aminonaphtho[2,3-d][1,3]dioxol-6-yl)cyclopropan-1-ol], in experiment [1] (225 minutes), the “Capture rate (slope of the capture curve per unit time)” value is −0.06 and the “Aldehyde consumption (100%)” value is given as 15.43%. Also, in experiment [1] (465 minutes), the “Capture rate (slope of the capture curve per unit time)” value is on record as −0.03 and the “Aldehyde consumption (100%)” value came out at 16.60%.
